The nature of data set [1]: Rota rod test (neurotoxicity). Type of data set: in vivo. To be noted: mouse, ip, mice, intraperitoneal, 30 min after administration, read-out: NTD50 (neurotoxic dose 50) in the rota rod test. The protocol:
The test used was that known as the rota rod test (BOISSIER-Therapie 1958, XIII, pp. 1074-1118). This test aims at enabling the animals' ability to coordinate their movements to be evaluated. It is carried out on batches of 10 mice each weighing about 25 g. The compound to be tested is administered by intraperitoneal route to the animals of each batch so that each batch receives a higher dose than that given to the preceding batch. Thirty minutes after administration, the mice are placed for two minutes on a wooden roller of 4.8 cm diameter which turns at the rate of 4 revolutions per minute. The roller has a rough surface to prevent the animals from slipping.
By this means, the neurotoxic dose 50 (NTD 50) can be determined, i.e. the dose of the compound with which one half of the animals can no longer stay on the roller during the period of time fixed as the reference period.
In order to obtain an activity index figure 30 minutes after administration the rota rod test described above was also performed using for comparison a known myorelaxant, namely mephenesin.

The test system of data set [2] is mice. The experiment in a line: Traction test (myorelaxant properties). Type of data set: in vivo, mice (OF 1). The protocol:
This test enables sense of balance as well as muscular tonus and strength to be evaulated.
The test is carried out on groups of 10 male mice of the OF 1 strain weighing about 25 g. It consists of suspending the mice by the front paws to a horizontally stretched wire. Note is first taken of the time required by a group of control animals to effect recovery i.e. to place at least one of their back paws on the wire.

Data set [3] has as its system mice. The experiment in a line: Maximum electroshock seizure (anticonvulsant action). To be noted: for ED50: Mus musculus, ip, 0.25 h, i.p., 15 min after administration, protection of 50% against tonic seizures. The format is in vivo, mice (OF 1). The protocol:
This seizure is characterized in the mouse by extension of the back paws for 5 to 10 seconds. The extension is similar to that observed during the tonicoclonic seizures provoked by chemical convulsants such as pentylenetetrazol or strychnine.
The test was carried out on batches of 10 mice of the OF 1 strain weighing about 22 g. […] Fifteen minutes later, each animal received an electric shock of twice threshold intensity (about 60 volts).
This latter value is indicated by the symbol HD50 or hypnotic dose 50 and the efficacy index by the fraction: [formula]

Data set [4] deals with mice. Description: Pentylenetetrazol-induced seizure (anticonvulsant action). To be noted: Mus musculus, ip, i.p., 125 mg/kg pentylenetetrazol i.p. The format is in vivo, mice (OF 1). The protocol: The purpose of this test which is carried out on mice is to determine whether the compounds of the invention, when given preventively by intraperitoneal route, are capable at certain doses of protecting some of the animals against the epileptic seizure produced by an adequate and predetermined dose of pentylenetetrazol which would be 100% fatal in the absence of the compound. The test was carried out on batches of 10 male OF 1 mice weighing about 25 g.

The subject of the next data set is rats. The experiment in a line: Anoxic seizure induced by gallamine triiodoethylate (antianoxic properties). As to conditions: 2 millimols/kg. The format is in vivo, rats (OFA). The text has this: The injection of a sufficient dose of a synthetic curariform substance such as gallamine triiodoethylate provokes in the rat paralysis of the diaphragm. The animal then dies by asphyxia.
Male rats of the OFA strain and weighing about 250 g. were first anesthetized with ether in order to enable tracheotomy to be performed and cortical electrodes to be inserted. Each rat was then maintained under conditions of artificial respiration by means of an appropriate apparatus and a paralysing dose of gallamine triiodoethylate was administered by intraperitoneal route to eliminate spontaneous breathing. The electrocorticogram, the electrocardiogram and the rectal temperature were registered. After a period of 30 minutes during which stabilization of the registrations was obtained the animal was treated with 2 millimols/kg of an oily solution of tri-n-propylacetic acid or an aqueous solution of one of its alkali metal salts. The artificial respiratory apparatus was stopped 5 minutes after treatment and note was taken of the cardiac frequency every 10 seconds as well as of the period of time between the stopping of the apparatus and the appearance of the flat tracing on the electrocorticogram. This period of time represents the period of survival of the animal. The value of the cardiac frequency corresponding to moment of appearance of the flat tracing was calculated by extrapolation.
The same test was performed on control animals but without administration of a compound of the invention.

Results on three molecules are retold here after US3958011A, “Compositions of tri-n-propylacetic acid and salts thereof and treatment of neurological disorders with such compositions” (priority 1972, dated 1976).

Regarding `Cc1ccccc1OCC(O)CO` (stereo not drawn) [Mephenesin, reference compound], in data set [1], the TD50 at 0.5 h was found to be 100 mg/kg. Moreover, the ED50 with mice [2] (Mus musculus, ip, 0.5 h, i.p., 30 min. after administration, read-out: ED50, loss of traction reflex) was 250 mg/kg. Also, the “Activity index: NTD50/ED50” value in the data set with mice [2] (rota rod NTD50 / traction ED50, 30 minutes after administration) was found to be 0.4.
In the case of `CCC1(c2ccccc2)C(=O)NC(=O)NC1=O` [Phenobarbital, reference compound], the ED50 in the data set on mice [3] was 78 mg/kg. Further, the “Efficacy index (HD50 compared with ED50)” value with mice [3] (electroshock ED50 versus hypnotic dose 50) amounted to 1.3.
As to `CCCC(CCC)(CCC)C(=O)O` [Tri-n-propylacetic acid, tri-n-propylacetic acid], the ED50 was found to be 87 mg/kg in the data set on mice [4] (0.125 h, 7 min. 30 sec after administration); 72 mg/kg in the data set on mice [4] (0.25 h, 15 min. after administration); 124 mg/kg in the data set on mice [4] (0.5 h, 30 min. after administration); 145 mg/kg with mice [3]. The “Increase of period of survival versus controls” value in the data set on rats stood at 19%. In the data set with rats (controls 74.3 ± 2.3), this molecule came in with a Period of survival of 87.9 ± 3.7 s. For the same molecule, the “Cardiac frequency when the flat tracing appears” value with rats (controls 150, calculated by extrapolation) is given as 109.

As usually defined, the ED50 is the dose at which the effect has come halfway, by size or by number of responders.
